Earlier results on one molecule are cited in patent EP0147926B1, “Oral anti-cancer compositions” (priority 1983, dated 1985).

For one data set, the system named is ADJ/PC6A plasmacytoma. The settings on record: administered orally.
The subject of data set [1] is P388 lymphocytic leukaemia. The conditions noted are these: administered orally.

Consider `N.N.O=C([O-])C1(C(=O)[O-])CCC1.[Pt+2]` [cis-[diammine-(1,1-cyclobutanedicarboxylato)platinum(II)l], for which the activity entry (with ADJ/PC6A plasmacytoma; in data set [1]) was “insignificant activity” each time.
